Here are results for five molecules from ChEMBL document CHEMBL5724914, “Linking interpersonal differences in gut microbiota composition and drug biotransformation activity” (2024).

Structures are written as SMILES.

Data set [1] can be described thus: The drug is tested on Z-028 corresponding to mouse gut metagenome with ENA study accession number: PRJEB37062 and ENA sample accession number: ERS12561827 for biotransformation under anaerobic condition. The drug concentrations were measured over 9 timepoints collected between 0 and 24 hours of incubation by liquid-chromatography-coupled mass spectrometry (LC–MS). The settings on record: 2 µM.

The conditions of data set [2]: human gut metagenome, 24 h, 2 µM.
For data set [3] the following is noted: human gut metagenome, 24 h, 2 µM. The source holds these as a separate data set.
Data set [4] can be described thus: The drug is tested on Z-026 corresponding to metagenome with ENA study accession number: PRJEB37062 and ENA sample accession number: ERS12561825 for biotransformation under anaerobic condition. The drug concentrations were measured over 9 timepoints collected between 0 and 24 hours of incubation by liquid-chromatography-coupled mass spectrometry (LC–MS). As to conditions: 2 µM.

A short description of data set [5]: The drug is tested on WLS-220 corresponding to human gut metagenome with ENA study accession number: PRJEB37062 and ENA sample accession number: ERS12561769 for biotransformation under anaerobic condition. The drug concentrations were measured over 9 timepoints collected between 0 and 24 hours of incubation by liquid-chromatography-coupled mass spectrometry (LC–MS). The settings on record: 2 µM.

Data set [6] in a line: The drug is tested on WLS-086 corresponding to human gut metagenome with ENA study accession number: PRJEB37062 and ENA sample accession number: ERS12561752 for biotransformation under anaerobic condition. The drug concentrations were measured over 9 timepoints collected between 0 and 24 hours of incubation by liquid-chromatography-coupled mass spectrometry (LC–MS). The settings on record: 2 µM.

Data set [7] is described as follows: The drug is tested on Z-014 corresponding to rat gut metagenome with ENA study accession number: PRJEB37062 and ENA sample accession number: ERS12561814 for biotransformation under anaerobic condition. The drug concentrations were measured over 9 timepoints collected between 0 and 24 hours of incubation by liquid-chromatography-coupled mass spectrometry (LC–MS). As to conditions: 2 µM.

Data set [8] can be described thus: The drug is tested on Z-003 corresponding to pig gut metagenome with ENA study accession number: PRJEB37062 and ENA sample accession number: ERS12561803 for biotransformation under anaerobic condition. The drug concentrations were measured over 9 timepoints collected between 0 and 24 hours of incubation by liquid-chromatography-coupled mass spectrometry (LC–MS). The settings on record: 2 µM.

For data set [9] the following is noted: human gut metagenome, 24 h, 2 µM. This is another data set of the same source.
For data set [10] the following is noted: human gut metagenome, 24 h, 2 µM. This is another data set of the same source.
Data set [11] can be described thus: The drug is tested on WLS-006 corresponding to human gut metagenome with ENA study accession number: PRJEB37062 and ENA sample accession number: ERS12561741 for biotransformation under anaerobic condition. The drug concentrations were measured over 9 timepoints collected between 0 and 24 hours of incubation by liquid-chromatography-coupled mass spectrometry (LC–MS). As to conditions: 2 µM.

The nature of data set [12]: The drug is tested on Z-008 corresponding to metagenome with ENA study accession number: PRJEB37062 and ENA sample accession number: ERS12561808 for biotransformation under anaerobic condition. The drug concentrations were measured over 9 timepoints collected between 0 and 24 hours of incubation by liquid-chromatography-coupled mass spectrometry (LC–MS). As to conditions: 2 µM.

For data set [13] the following is noted: human gut metagenome, 24 h, 2 µM. The source holds these as a separate data set.
Data set [14] is described as follows: The drug is tested on Z-018 corresponding to pig gut metagenome with ENA study accession number: PRJEB37062 and ENA sample accession number: ERS12561817 for biotransformation under anaerobic condition. The drug concentrations were measured over 9 timepoints collected between 0 and 24 hours of incubation by liquid-chromatography-coupled mass spectrometry (LC–MS). As to conditions: 2 µM.

For data set [15] the following is noted: human gut metagenome, 24 h, 2 µM. This is another data set of the same source.
Data set [16] can be described thus: The drug is tested on Z-019 corresponding to rat gut metagenome with ENA study accession number: PRJEB37062 and ENA sample accession number: ERS12561818 for biotransformation under anaerobic condition. The drug concentrations were measured over 9 timepoints collected between 0 and 24 hours of incubation by liquid-chromatography-coupled mass spectrometry (LC–MS). The settings on record: 2 µM.

For data set [17] the following is noted: human gut metagenome, 24 h, 2 µM. This is another data set of the same source.
Data set [18] can be described thus: The drug is tested on Z-017 corresponding to mouse gut metagenome with ENA study accession number: PRJEB37062 and ENA sample accession number: ERS12561816 for biotransformation under anaerobic condition. The drug concentrations were measured over 9 timepoints collected between 0 and 24 hours of incubation by liquid-chromatography-coupled mass spectrometry (LC–MS). The settings on record: 2 µM.

The conditions of data set [19]: human gut metagenome, 24 h, 2 µM. The source holds these as a separate data set.
Data set [20] can be described thus: The drug is tested on Z-002 corresponding to rabbit gut metagenome with ENA study accession number: PRJEB37062 and ENA sample accession number: ERS12561802 for biotransformation under anaerobic condition. The drug concentrations were measured over 9 timepoints collected between 0 and 24 hours of incubation by liquid-chromatography-coupled mass spectrometry (LC–MS). As to conditions: 2 µM.
Also: call rule not given here.

In the case of `CCOC(=O)[C@H](CCc1ccccc1)N[C@H]1CCc2ccccc2N(CC(=O)O)C1=O` [BENAZEPRIL], the “Bacterial Biotransformation” value in data set [1], in data set [2], in [3], in data set [4], in data set [5] and in [6] was “Compound metabolized” in each case. Besides, the “Bacterial Biotransformation” value in data set [7] was “Compound NOT metabolized”; in [8], “Compound metabolized”; in data set [9], “Compound metabolized”; in [10] it was “Compound metabolized”; in data set [11], “Compound metabolized”; in [12], “Compound metabolized”. The “Bacterial Biotransformation” value is reported as “Compound metabolized” in data set [13]; “Compound metabolized” in [14]; “Compound metabolized” in data set [15]; “Compound NOT metabolized” in [16]; “Compound metabolized” in [17]; “Compound metabolized” in data set [18]. The “Bacterial Biotransformation” value in data set [19] and in [20] was “Compound metabolized” throughout.
Consider `NS(=O)(=O)c1cc2c(cc1Cl)N=C(CSCc1ccccc1)NS2(=O)=O` [BENZTHIAZIDE], for which the “Bacterial Biotransformation” value in [1], in data set [2], in [3], in data set [4], in data set [5] and in [6] was “Compound NOT metabolized” each time. Moreover, the “Bacterial Biotransformation” value in [7], in data set [8], in [9], in [10], in data set [11] and in [12] was “Compound NOT metabolized” in each case. In addition, the “Bacterial Biotransformation” value in [13], in [14], in data set [15], in data set [16], in [17] and in data set [18] was “Compound NOT metabolized” each time. The entries for the “Bacterial Biotransformation” value in data set [19] and in [20] were “Compound NOT metabolized” and “Compound metabolized”, respectively.
As to `CC(C)NCC(O)COc1ccc(COCCOC(C)C)cc1.CC(C)NCC(O)COc1ccc(COCCOC(C)C)cc1.O=C(O)/C=C/C(=O)O` (stereo not given) [BISOPROLOL FUMARATE], the “Bacterial Biotransformation” value is recorded as “Compound NOT metabolized” in data set [1]; “Compound metabolized” in data set [2]; “Compound NOT metabolized” in data set [3]; “Compound NOT metabolized” in data set [4]; “Compound metabolized” in data set [5]; “Compound metabolized” in [6]. Moreover, the “Bacterial Biotransformation” value in [7] was “Compound NOT metabolized”; in data set [8], “Compound metabolized”; in data set [9], “Compound metabolized”; in data set [10] it was “Compound NOT metabolized”; in [11], “Compound metabolized”; in data set [12], “Compound NOT metabolized”. Moreover, the “Bacterial Biotransformation” value in data set [13] was “Compound metabolized”; in [14] it was “Compound NOT metabolized”; in [15], “Compound NOT metabolized”; in data set [16], “Compound NOT metabolized”; in [17] it was “Compound NOT metabolized”; in data set [18], “Compound NOT metabolized”. The “Bacterial Biotransformation” value in data set [19] and in data set [20] was “Compound metabolized” each time.
With `CCCCCOC(=O)Nc1nc(=O)n([C@@H]2O[C@H](C)[C@@H](O)[C@H]2O)cc1F` [CAPECITABINE], the “Bacterial Biotransformation” value in [1] was “Compound metabolized”; in data set [2], “Compound metabolized”; in data set [3] it was “Compound metabolized”; in data set [4] it was “Compound NOT metabolized”; in data set [5], “Compound metabolized”; in data set [6], “Compound metabolized”. Moreover, the “Bacterial Biotransformation” value in data set [7] is reported as “Compound NOT metabolized”; in [8], “Compound metabolized”; in data set [9] it was “Compound metabolized”; in data set [10], “Compound metabolized”; in data set [11] it was “Compound metabolized”; in data set [12], “Compound NOT metabolized”. Also, the “Bacterial Biotransformation” value in data set [13] is reported as “Compound metabolized”; in data set [14], “Compound metabolized”; in data set [15], “Compound metabolized”; in [16], “Compound NOT metabolized”; in data set [17], “Compound metabolized”; in data set [18] it was “Compound metabolized”. Also, the “Bacterial Biotransformation” value in data set [19] and in [20] was “Compound metabolized” in each case.
Take `Cc1ccc(-c2cc(C(F)(F)F)nn2-c2ccc(S(N)(=O)=O)cc2)cc1` [CELECOXIB]: the “Bacterial Biotransformation” value in data set [1] is “Compound NOT metabolized”; in data set [2] it was “Compound metabolized”; in data set [3], “Compound NOT metabolized”; in data set [4], “Compound NOT metabolized”; in data set [5] it was “Compound metabolized”; in [6], “Compound NOT metabolized”. The “Bacterial Biotransformation” value is “Compound NOT metabolized” in data set [7]; “Compound NOT metabolized” in data set [8]; “Compound metabolized” in data set [9]; “Compound NOT metabolized” in data set [10]; “Compound metabolized” in data set [11]; “Compound NOT metabolized” in data set [12]. The “Bacterial Biotransformation” value was “Compound NOT metabolized” in [13]; “Compound NOT metabolized” in data set [14]; “Compound metabolized” in data set [15]; “Compound NOT metabolized” in data set [16]; “Compound NOT metabolized” in [17]; “Compound NOT metabolized” in data set [18]. Moreover, the “Bacterial Biotransformation” value in [19] is on record as “Compound metabolized”; in data set [20], “Compound NOT metabolized”.
